Measurements taken from paper PMC4861708 (Frontiers in Cell and Developmental Biology, 2016).
Converted amounts (≈) assume the structure as drawn. Where a SMILES comes first, the peptide text is derived from it. [ ]: non-standard residue; d: D form. The star is where a group is joined. Orn(α-tetramethylguanidino) = CN(C)C(=N[C@@H](CCCN)C(=O)*)N(C)C; Orn = NCCC[C@H](N)C(=O)O

How the values were obtained:
P. aeruginosa elastase = molecular target: T1, P. aeruginosa elastase (Pseudomonas aeruginosa, UniProt P14756); test: Elastase assay (proteolytic stability); assay type: in vitro ADME; settings: Pseudomonas aeruginosa, isolated enzyme elastase; after 6 h, elastase 12 units/mL, pH 8.3, 37°C; read-out: Peptide remaining with elastase
T1 construct: purchased Merck (Darmstadt, Germany)
Description: A stock solution of P. aeruginosa elastase (0.26 U/μL) was prepared in Tris-HCl (5 mmol/L, pH 8.3) and stored at −80°C. Peptides (0.5 g/L in 5 mmol/L Tris-HCl, pH 8.3) were incubated with elastase (0.012 U/μL) at 37°C under constant shaking (450 rpm) for 0, 0.5, 2, 4, and 6 h. Aliquots (10.5 μL) were precipitated with a mixture of acetonitrile and ethanol (1:1 v/v) containing 0.1% TFA (21 μL), centrifuged, the supernatant transferred into a new tube, and dried in vacuum. Samples were dissolved in aqueous acetonitrile (3% v/v) containing TFA (0.1% v/v) and analyzed by RP-HPLC using the conditions described above.

[1] = system: P. aeruginosa DSM 1117 (ATCC 27853); assay type: cell-based, Pseudomonas aeruginosa; settings: DSM 1117, 24 h
Description: (§1) MICs of P. aeruginosa strains DSM 1117 (ATCC 27853), DSM 3227 (ATCC 19429), and DSM 9644 were determined in a microdilution broth assay using 50 or 100% MHB (11.5 and 23 g/L MHB, respectively) whereas MICs of E. coli DSM 1103 (ATCC 25922) and K. pneumoniae DSM 681 (ATCC 10031) were determined in TSB (30 g/L TSB). Peptides (1 g/L in water) were serially two-fold diluted in a 96-well microtiter plate (PS, sterile, flat bottom) in 50 μL of the corresponding medium to final concentrations of 512–4 μg/mL. Bacteria were grown in nutrient broth overnight and diluted to a cell concentration of 1.5 × 10^7 cells/mL in the corresponding medium. Cell densities were determined by using the McFarland standard as reference. An aliquot (50 μL) of the cell culture was added to each well and incubated (37°C, 24 h). The OD595 was determined in a SpectraMax 340PC (Molecular Devices, Sunnyvale, USA). Additionally, MIC values were also determined for high bacteria densities (5 × 10^8 cells/mL) corresponding to the conditions used for TEM, as described above.

[2] = system: E. coli DSM 1103 (ATCC 25922); assay type: cell-based, Escherichia coli; settings: DSM 1103, 24 h
Description: as §1

P. aeruginosa DSM 1117 = test: Transmission electron microscopy, morphological changes; assay type: cell-based, Pseudomonas aeruginosa; settings: 1 h
Description: Peptide-bacteria mixtures were fixed (2% glutaraldehyde, 5 mmol/L CaCl2, 10 mmol/L MgCl2 in 0.1 mol/L sodium cacodylate buffer, pH 7.4) overnight at 4°C. […] Samples were rinsed with distilled water (5 × 10 min), incubated with aqueous uranylacetate (0.5% w/v) for 1 h at 4°C, washed with distilled water (3 × 10 min), and embedded in Epon. The hardened blocks were sectioned (50 nm) on a UCT ultramicrotome (Leica, Vienna, Austria), stained with uranyl acetate and lead citrate on an AC20 system (Leica), and visualized at a Tecnai 12 electron microscope (FEI, Eindhoven, The Netherlands) at 80 kV. Morphological effects were quantified on average for 25 cells per condition.

[3] = system: K. pneumoniae DSM 681 (ATCC 10031); assay type: cell-based, Klebsiella pneumoniae; settings: DSM 681, 24 h
Description: as §1

T1 sequence (P14756 198-498): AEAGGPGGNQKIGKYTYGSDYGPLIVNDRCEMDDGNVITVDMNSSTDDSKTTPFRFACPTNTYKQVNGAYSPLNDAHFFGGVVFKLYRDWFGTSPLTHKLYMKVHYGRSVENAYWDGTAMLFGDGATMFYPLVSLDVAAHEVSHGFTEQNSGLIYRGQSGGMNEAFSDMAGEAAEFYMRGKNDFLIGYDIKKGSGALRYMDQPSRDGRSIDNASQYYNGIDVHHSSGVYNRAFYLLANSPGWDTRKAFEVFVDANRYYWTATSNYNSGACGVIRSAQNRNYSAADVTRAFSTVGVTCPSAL

CC(C)C[C@H](NC(=O)[C@H](CCCNC(=N)N)NC(=O)[C@@H]1CCCN1C(=O)[C@H](Cc1c[nH]cn1)NC(=O)[C@@H]1CCCN1C(=O)[C@@H]1CCCN1C(=O)[C@H](CCCNC(=N)N)NC(=O)[C@@H]1CCCN1C(=O)[C@H](CCCNC(=N)N)NC(=O)[C@@H]1CCCN1C(=O)[C@H](CCCN)NC(=O)[C@H](Cc1ccc(O)cc1)NC(=O)[C@@H](NC(=O)[C@@H]1CCCN1C(=O)[C@H](CCCNC(=N)N)NC(=O)[C@H](CCCN)NC(=O)[C@H](Cc1c[nH]c2ccccc12)NC(=O)[C@H](CCCN)NC(=O)[C@H](Cc1c[nH]c2ccccc12)NC(=O)[C@H](CCCN)NC(=O)[C@H](Cc1c[nH]c2ccccc12)NC(=O)[C@H](CCCN)N=C(N(C)C)N(C)C)C(C)C)C(=O)O [Api794, gu-O(WO)3RPVYOPRPRPPHPRL-OH] ({Orn(α-tetramethylguanidino)}-W[Orn]W[Orn]W[Orn]RPVY[Orn]PRPRPPHPRL-OH)
remaining at 6 h, 0.5 g/L (P. aeruginosa elastase): 79 ± 6%
MIC P. aeruginosa DSM 1117, high inoculum [1]: 64 µg/mL (≈ 21.6 µM)
MIC E. coli ATCC 25922 [2]: 16 µg/mL (≈ 5.4 µM)
MIC E. coli DSM 1103, high inoculum [2]: 64 µg/mL (≈ 21.6 µM)
Cells spongy (P. aeruginosa DSM 1117; 16 µg/mL): 0%
DNA/ribosomes relocalization: +++, extremely relocalized (P. aeruginosa DSM 1117; 16 µg/mL): 0%
DNA/ribosomes relocalization: ++, relocalized (P. aeruginosa DSM 1117; 16 µg/mL): 23%
DNA/ribosomes relocalization: +, starting (P. aeruginosa DSM 1117; 16 µg/mL): 37%
DNA/ribosomes relocalization: -, no (P. aeruginosa DSM 1117; 16 µg/mL): 40%
Membrane: b, broken (P. aeruginosa DSM 1117; 16 µg/mL): 0%
Membrane: i, intact (P. aeruginosa DSM 1117; 16 µg/mL): 100%
Membrane: r, ruptured (P. aeruginosa DSM 1117; 16 µg/mL): 0%
Ribosome clustering: +++, extremely clustered (P. aeruginosa DSM 1117; 16 µg/mL): 0%
Ribosome clustering: ++, clustered (P. aeruginosa DSM 1117; 16 µg/mL): 0%
Ribosome clustering: +, starting (P. aeruginosa DSM 1117; 16 µg/mL): 80%
Ribosome clustering: -, no (P. aeruginosa DSM 1117; 16 µg/mL): 20%
Vesicle release (P. aeruginosa DSM 1117; 16 µg/mL): 87%
dissociated Fragments: +, small and thin (P. aeruginosa DSM 1117; 16 µg/mL): 10%
dissociated Fragments: -, no (P. aeruginosa DSM 1117; 16 µg/mL): 77%
dissociated Fragments: LV, large vesicles (P. aeruginosa DSM 1117; 16 µg/mL): 0%
Cells spongy (P. aeruginosa DSM 1117; 64 µg/mL): 0%
DNA/ribosomes relocalization: +++, extremely relocalized (P. aeruginosa DSM 1117; 64 µg/mL): 83%
DNA/ribosomes relocalization: ++, relocalized (P. aeruginosa DSM 1117; 64 µg/mL): 10%
DNA/ribosomes relocalization: +, starting (P. aeruginosa DSM 1117; 64 µg/mL): 3%
DNA/ribosomes relocalization: -, no (P. aeruginosa DSM 1117; 64 µg/mL): 3%
Membrane: b, broken (P. aeruginosa DSM 1117; 64 µg/mL): 80%
Membrane: i, intact (P. aeruginosa DSM 1117; 64 µg/mL): 20%
Membrane: r, ruptured (P. aeruginosa DSM 1117; 64 µg/mL): 47%
Ribosome clustering: +++, extremely clustered (P. aeruginosa DSM 1117; 64 µg/mL): 73%
Ribosome clustering: ++, clustered (P. aeruginosa DSM 1117; 64 µg/mL): 10%
Ribosome clustering: -, no (P. aeruginosa DSM 1117; 64 µg/mL): 3%
Vesicle release (P. aeruginosa DSM 1117; 64 µg/mL): 20%
dissociated Fragments: ++, long and thin (P. aeruginosa DSM 1117; 64 µg/mL): 63%
dissociated Fragments: +, small and thin (P. aeruginosa DSM 1117; 64 µg/mL): 20%
dissociated Fragments: LV, large vesicles (P. aeruginosa DSM 1117; 64 µg/mL): 30%
Cells spongy (P. aeruginosa DSM 1117; 256 µg/mL): 80%
DNA/ribosomes relocalization: +++, extremely relocalized (P. aeruginosa DSM 1117; 256 µg/mL): 100%
DNA/ribosomes relocalization: ++, relocalized (P. aeruginosa DSM 1117; 256 µg/mL): 0%
DNA/ribosomes relocalization: +, starting (P. aeruginosa DSM 1117; 256 µg/mL): 0%
DNA/ribosomes relocalization: -, no (P. aeruginosa DSM 1117; 256 µg/mL): 0%
Membrane: b, broken (P. aeruginosa DSM 1117; 256 µg/mL): 67%
Membrane: i, intact (P. aeruginosa DSM 1117; 256 µg/mL): 34%
Membrane: r, ruptured (P. aeruginosa DSM 1117; 256 µg/mL): 67%
Ribosome clustering: +++, extremely clustered (P. aeruginosa DSM 1117; 256 µg/mL): 100%
Ribosome clustering: ++, clustered (P. aeruginosa DSM 1117; 256 µg/mL): 0%
Ribosome clustering: +, starting (P. aeruginosa DSM 1117; 256 µg/mL): 0%
Ribosome clustering: -, no (P. aeruginosa DSM 1117; 256 µg/mL): 0%
Vesicle release (P. aeruginosa DSM 1117; 256 µg/mL): 3%
dissociated Fragments: ++, long and thin (P. aeruginosa DSM 1117; 256 µg/mL): 80%
dissociated Fragments: -, no (P. aeruginosa DSM 1117; 256 µg/mL): 7%
dissociated Fragments: LV, large vesicles (P. aeruginosa DSM 1117; 256 µg/mL): 93%
Cells spongy (P. aeruginosa DSM 1117; 512 µg/mL): 87%
DNA/ribosomes relocalization: +++, extremely relocalized (P. aeruginosa DSM 1117; 512 µg/mL): 100%
DNA/ribosomes relocalization: ++, relocalized (P. aeruginosa DSM 1117; 512 µg/mL): 0%
DNA/ribosomes relocalization: +, starting (P. aeruginosa DSM 1117; 512 µg/mL): 0%
DNA/ribosomes relocalization: -, no (P. aeruginosa DSM 1117; 512 µg/mL): 0%
Ribosome clustering: +++, extremely clustered (P. aeruginosa DSM 1117; 512 µg/mL): 93%
Ribosome clustering: ++, clustered (P. aeruginosa DSM 1117; 512 µg/mL): 7%
Ribosome clustering: +, starting (P. aeruginosa DSM 1117; 512 µg/mL): 0%
Ribosome clustering: -, no (P. aeruginosa DSM 1117; 512 µg/mL): 0%
Vesicle release (P. aeruginosa DSM 1117; 512 µg/mL): 0%
dissociated Fragments: ++, long and thin (P. aeruginosa DSM 1117; 512 µg/mL): 60%
dissociated Fragments: +, small and thin (P. aeruginosa DSM 1117; 512 µg/mL): 0%
dissociated Fragments: -, no (P. aeruginosa DSM 1117; 512 µg/mL): 40%
dissociated Fragments: LV, large vesicles (P. aeruginosa DSM 1117; 512 µg/mL): 97%
MIC K. pneumoniae DSM 681 [3]: 32 µg/mL (≈ 10.8 µM)
